8 molecules from patent US8598132B2, “Glycosylated indolocarbazoles, method for obtaining same and uses thereof” (Universidad de Oviedo, priority 2008, dated 2013) can be followed below.

Format in all cases: biochemical
One experiment has as its target T1, AmpKa1 (Homo sapiens, UniProt Q13131).
T1 construct: purchased Carna Biosciences
The experiment can be described thus: LabChip (Caliper) kinase assay, AmpKa1. To be noted: read-out: remaining kinase activity (in %) / percentage of inhibition; for inhibition at 0.01 µM: compound at 10 nM; for inhibition at 0.1 µM: compound at 100 nM. On the procedure: (§1) The analysis of kinase activity described here was performed using LabChip (Caliper Life Sciences), specifically the Caliper LC3000 and the EZ Reader II instruments.
(§2) The kinase assay used measures the conversion of a fluorescent peptide (substrate) to a phosphorylated product. The reaction mixture, in a microplate well, is introduced by a capillary in a chip where the non-phosphorylated substrate and the phosphorylated product are separated by […]. The intensity of the fluorescent signal over time is related to the reaction progress. The phosphorylated product migrates quicker than the non-phosphorylated substrate and the signals of the two forms of the peptide appear as differentiated peaks. The Caliper determines the peak height and calculates the ratio of product to the peak sum (P/(P+S)). This value is used to compare wells with compounds and wells with controls and thus determine the % of inhibition for the given product.
(§3) The followings kinases were used for the enzymatic inhibition studies, between brackets the value of the Michaelis-Menten constant, Km, of the ATP (Adenosine triphosphate) for each kinase, in μM: obtained from Carna Biosciences: MAPKAPK2 (4.6), AurA (3.6), AurB (5), PKCζ (3.8), RSK1 (23.3), PRAK (5), Erk1 (33.4), PKD2 (32.1), CK1d (16.3), CHK1 (33), ABL (61.7), FYN (36), LYNa (17), CHK2 (57.8), MET (79.5), LCK (28.5), SRC (38), GSK3β (7.3), Erk2 (62.1), PKACα (1.7), AKT2 (186.1), INSR (871.8), p38a (396.5), AKT1(48), MSK1 (21.2), PKCβ2 (84.8), ROCK2 (3.3), PIM2 (4.9), AMPK (38.6), KDR (164.8), IRAK4 (196.5), SGK1 (121.8), SYK (33.5); obtained from Invitrogen: CDK2 (57.6), BTK (123), HGK (80); obtained from Upstate: MST2 (36.6), PKGα (16), PAK2 (1.9), IGF1R (320), FGFR1 (171), MARK1 (33), CAMK2δ (22.4), c-TAK1 (66), DYRK1a (18.1), CaMK4 (3.9), FLT3 (350), c-Raf (6.2), P70S6K (95).
(§4) The compounds were dissolved in 100% DMSO and were diluted at 25 times the final concentration desired for the assay. In the case of the determination of Cl50, serial dilutions were made to reach eight concentrations and give rise to the inhibition curve. 1 μL of each concentration is transferred, in duplicate to a 384-well microplate. 12 μL of enzymatic buffer is added to each well containing purified kinase (several suppliers as indicated above), 100 mM HEPES, pH 7.5, 1 mM DTT (Calbiochem), 0.002% Brij-35 (Sigma) and also in presence of 10 mM MgCl2 as cofactor, except for INSR and IRAK4 wherein 10 mM MnCl2 is used instead of MgCl2. For the kinases CAMK26 and CAMK4, 1 mM CaCl2 and 6.7 μg/mL of calmodulin are also added. For KDR kinase, 0.05% of the CHAPSO detergent is added. For the c-Raf kinase, 10 mM MnCl2 is added. For PKCβ2 0.02 μg/mL of PS/PMA is added. For PKGα se 10 μM of cGMP (cyclic guanosine monophosphate) is added. The compound and the enzyme are left for 15 minutes preincubation and, then, the following are added to each well: 12 μL of peptide buffer/ATP containing 100 mM HEPES, pH 7.5, 1.5 μM peptide marker with fluorescein (specific for the corresponding kinase), ATP (at concentration KM), and 0.002% Brij-35 to start the reaction. Generally, the reactions are incubated for 1-1.5 h at ambient temperature to obtain an adequate conversion (15-40%) of the peptide to the phosphorylated product. The reactions were ended by the addition of 45 μL of buffer containing 0 mM EDTA. The microplates were read by the LabChip 3000 using a 12-channel LabChip. The P/(P+S) values were obtained as described above and the CI50 curves were generated using XIfit. […]

A further experiment concerns CamK2a. The experiment can be described thus: LabChip (Caliper) kinase assay, CamK2a. As to the method:
as §1, §2, §3
The compounds were dissolved in 100% DMSO and were diluted at 25 times the final concentration desired for the assay. In the case of the determination of Cl50, serial dilutions were made to reach eight concentrations and give rise to the inhibition curve. 1 μL of each concentration is transferred, in duplicate to a 384-well microplate. 12 μL of enzymatic buffer is added to each well containing purified kinase (several suppliers as indicated above), 100 mM HEPES, pH 7.5, 1 mM DTT (Calbiochem), 0.002% Brij-35 (Sigma) and also in presence of 10 mM MgCl2 as cofactor, except for INSR and IRAK4 wherein 10 mM MnCl2 is used instead of MgCl2. For the kinases CAMK26 and CAMK4, 1 mM CaCl2 and 6.7 μg/mL of calmodulin are also added. For KDR kinase, 0.05% of the CHAPSO detergent is added. For the c-Raf kinase, 10 mM MnCl2 is added. For PKCβ2 0.02 μg/mL of PS/PMA is added. For PKGα se 10 μM of cGMP (cyclic guanosine monophosphate) is added. The compound and the enzyme are left for 15 minutes preincubation and, then, the following are added to each well: 12 μL of peptide buffer/ATP containing 100 mM HEPES, pH 7.5, 1.5 μM peptide marker with fluorescein (specific for the corresponding kinase), ATP (at concentration KM), and 0.002% Brij-35 to start the reaction. Generally, the reactions are incubated for 1-1.5 h at ambient temperature to obtain an adequate conversion (15-40%) of the peptide to the phosphorylated product. The reactions were ended by the addition of 45 μL of buffer containing 0 mM EDTA. The microplates were read by the LabChip 3000 using a 12-channel LabChip. The P/(P+S) values were obtained as described above and the CI50 curves were generated using XIfit.
For example, the activity of the Dyrk1a kinase is inhibited in 87% by the compound of formula (III) and completely by the compound of formula (XII) when used at a concentration of 10 nM.

In the next experiment the target is T2, GSK3b (Homo sapiens, UniProt P49841).
T2 construct: purchased Carna Biosciences
Kind of experiment: LabChip (Caliper) kinase assay, GSK3b. The conditions noted are these: read-out: remaining kinase activity (in %) / percentage of inhibition; for inhibition at 0.01 µM: compound at 10 nM; for inhibition at 0.1 µM: compound at 100 nM. As to the method: as §1, §2, §3, §4

Each structure is given as a SMILES string.

T2 sequence (P49841 whole entry): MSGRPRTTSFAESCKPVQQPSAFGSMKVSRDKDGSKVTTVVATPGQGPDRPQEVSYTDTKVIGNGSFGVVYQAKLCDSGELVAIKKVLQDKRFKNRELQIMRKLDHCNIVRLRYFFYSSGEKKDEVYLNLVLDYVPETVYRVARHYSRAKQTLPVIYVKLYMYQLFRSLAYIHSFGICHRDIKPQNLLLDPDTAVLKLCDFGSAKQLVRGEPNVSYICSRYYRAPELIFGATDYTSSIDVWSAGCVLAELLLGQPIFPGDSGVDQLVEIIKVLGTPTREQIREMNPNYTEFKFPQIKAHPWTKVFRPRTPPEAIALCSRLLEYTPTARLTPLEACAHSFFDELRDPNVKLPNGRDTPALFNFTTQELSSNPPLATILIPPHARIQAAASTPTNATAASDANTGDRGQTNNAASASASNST
T1 sequence (Q13131 whole entry): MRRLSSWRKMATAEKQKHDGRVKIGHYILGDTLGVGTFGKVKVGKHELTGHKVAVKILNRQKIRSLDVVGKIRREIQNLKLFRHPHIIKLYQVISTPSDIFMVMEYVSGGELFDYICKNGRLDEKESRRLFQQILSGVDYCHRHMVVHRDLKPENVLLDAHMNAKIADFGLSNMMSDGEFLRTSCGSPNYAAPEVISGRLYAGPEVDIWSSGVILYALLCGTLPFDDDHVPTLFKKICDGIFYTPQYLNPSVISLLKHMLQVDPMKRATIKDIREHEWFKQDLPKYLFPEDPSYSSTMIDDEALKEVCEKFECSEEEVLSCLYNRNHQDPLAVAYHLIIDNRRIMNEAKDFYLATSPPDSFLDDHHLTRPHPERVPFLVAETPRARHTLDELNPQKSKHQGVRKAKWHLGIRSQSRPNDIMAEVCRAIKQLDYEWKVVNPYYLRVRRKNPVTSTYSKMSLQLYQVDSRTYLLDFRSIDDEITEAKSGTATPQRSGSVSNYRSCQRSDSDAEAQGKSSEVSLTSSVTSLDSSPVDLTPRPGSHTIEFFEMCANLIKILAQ
T1 sequence (Q9Y478 whole entry partner): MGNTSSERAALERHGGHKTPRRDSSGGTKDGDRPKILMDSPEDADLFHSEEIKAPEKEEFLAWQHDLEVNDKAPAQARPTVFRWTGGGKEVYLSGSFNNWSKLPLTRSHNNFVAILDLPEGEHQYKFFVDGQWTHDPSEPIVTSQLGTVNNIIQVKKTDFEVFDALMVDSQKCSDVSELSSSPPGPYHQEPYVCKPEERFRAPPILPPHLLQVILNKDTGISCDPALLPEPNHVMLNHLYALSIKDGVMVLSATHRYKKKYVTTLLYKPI
T1 sequence (P54619 whole entry partner): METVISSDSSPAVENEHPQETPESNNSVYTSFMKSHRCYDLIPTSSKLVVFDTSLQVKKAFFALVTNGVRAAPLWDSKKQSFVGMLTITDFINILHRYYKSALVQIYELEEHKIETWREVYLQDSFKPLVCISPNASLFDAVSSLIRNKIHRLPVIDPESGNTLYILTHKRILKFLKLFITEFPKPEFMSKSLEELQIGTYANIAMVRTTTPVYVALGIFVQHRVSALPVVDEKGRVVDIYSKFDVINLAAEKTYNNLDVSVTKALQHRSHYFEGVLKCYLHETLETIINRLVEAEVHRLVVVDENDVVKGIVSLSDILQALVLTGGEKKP

Consider `C[C@@H]1O[C@@H](n2c3ccccc3c3c4c(c5c6ccccc6[nH]c5c32)C(=O)NC4=O)[C@H](O)[C@H](O)[C@H]1O` [formula (III), N^13-1′-β-L-rhamnosylarcyriaflavin], for which the inhibition at 0.01 µM at AmpKa1 came out at 1%; at GSK3b, 21%. For the same molecule, the inhibition at 0.1 µM on AmpKa1 is 11%; at GSK3b, 72%. Further, the “remaining kinase activity (in %) / percentage of inhibition” value in the experiment on CamK2a (compound at 10 nM) is −5%; with CamK2a (compound at 100 nM) it was 3%.
`C[C@@H]1O[C@@H](n2c3ccccc3c3c4c(c5c6ccccc6[nH]c5c32)C(=O)NC4=O)C[C@H](O)[C@H]1O` [formula (IV), N^13-1′-β-L-olivosylarcyriaflavin]: the inhibition at 0.01 µM at AmpKa1 amounted to 3%; at GSK3b, 21%. For the same molecule, the inhibition at 0.1 µM on AmpKa1 turned out to be 21%; at GSK3b, 69%. The “remaining kinase activity (in %) / percentage of inhibition” value with CamK2a (compound at 10 nM) stood at 36%; with CamK2a (compound at 100 nM) it was 29%.
Consider `C[C@@H]1O[C@@H](n2c3ccccc3c3c4c(c5c6ccccc6[nH]c5c32)C(=O)NC4=O)C[C@@H](O)[C@H]1O` [formula (V), N^13-1′-β-L-digitoxosylarcyriaflavin], for which the inhibition at 0.01 µM at AmpKa1 was found to be 8%; at GSK3b, 42%. Further, the results for the inhibition at 0.1 µM on AmpKa1 and on GSK3b were 28% and 81%, respectively. In addition, the “remaining kinase activity (in %) / percentage of inhibition” value in the experiment on CamK2a (compound at 10 nM) stood at 15%; with CamK2a (compound at 100 nM) it was 58%.
In the case of `C[C@H]1O[C@@H](n2c3ccccc3c3c4c(c5c6ccccc6[nH]c5c32)C(=O)NC4=O)C[C@@H](O)[C@@H]1O` [formula (VI), N^13-1′-β-D-olivosylarcyriaflavin], the inhibition at 0.01 µM on AmpKa1 was found to be 5%; at GSK3b, 18%. Besides, the inhibition at 0.1 µM at AmpKa1 came out at 33%; on GSK3b it was 69%. The “remaining kinase activity (in %) / percentage of inhibition” value with CamK2a (compound at 10 nM) is given as 4%; in the experiment on CamK2a (compound at 100 nM) it was 46%.
In the case of `C[C@@H]1O[C@@H](n2c3ccccc3c3c4c(c5c6ccccc6[nH]c5c32)CNC4=O)[C@H](O)[C@H](O)[C@H]1O` [formula (XII), N^13-1′-β-L-rhamnosyl-k252c], the inhibition at 0.01 µM was 1% on AmpKa1 and 3% on GSK3b. In addition, the inhibition at 0.1 µM on AmpKa1 turned out to be 7%; at GSK3b, 8%. Further, the “remaining kinase activity (in %) / percentage of inhibition” value in the experiment on CamK2a (compound at 10 nM) is −6%; in the experiment on CamK2a (compound at 100 nM), 2%.
For the molecule `C[C@@H]1O[C@@H](n2c3ccccc3c3c4c(c5c6ccccc6[nH]c5c32)CNC4=O)C[C@H](O)[C@H]1O` [formula (XIII), N^13-1′-β-L-olivosyl-k252c], the figures for the inhibition at 0.01 µM on AmpKa1 and on GSK3b were -3% and 2%, respectively. Besides, the values for the inhibition at 0.1 µM on AmpKa1 and at GSK3b were 10% and 9%, respectively. The “remaining kinase activity (in %) / percentage of inhibition” value with CamK2a (compound at 10 nM) is recorded as −6%; in the experiment with CamK2a (compound at 100 nM) it was 27%.
Take `C[C@@H]1O[C@@H](n2c3ccccc3c3c4c(c5c6ccccc6[nH]c5c32)CNC4=O)C[C@@H](O)[C@H]1O` [formula (XIV), N^13-1′-β-L-digitoxosyl-k252c]: the inhibition at 0.01 µM turned out to be 2% on AmpKa1 and 1% at GSK3b. The inhibition at 0.1 µM came out at 1% at AmpKa1 and 7% on GSK3b. For the same molecule, the figures for the “remaining kinase activity (in %) / percentage of inhibition” value in the experiment on CamK2a (compound at 10 nM) and in the experiment with CamK2a (compound at 100 nM) were −7% and 26%, respectively.
`C[C@H]1O[C@@H](n2c3ccccc3c3c4c(c5c6ccccc6[nH]c5c32)CNC4=O)C[C@@H](O)[C@@H]1O` [formula (XV), N^13-1′-β-D-olivosyl-k252c]: the values for the inhibition at 0.01 µM at AmpKa1 and at GSK3b were -3% and 0%, respectively. Also, the inhibition at 0.1 µM stood at 9% at AmpKa1 and 0% at GSK3b. Further, the results for the “remaining kinase activity (in %) / percentage of inhibition” value with CamK2a (compound at 10 nM) and in the experiment with CamK2a (compound at 100 nM) were −6% and 29%, respectively.
